Laboratory results as given in patent publication US20070264354A1, “TREATMENT OF A WOUND WITH A VASODILATOR” (priority 2006, published 2007).
Where no end group is shown, it is not given here.

Assays:
wound areas = details: 50 ul of 110 ug/ml solution topically (Li et al, 1980); cited from earlier work
leukocyte chemotaxis = details: subdermal air sacs, mice (Lawman et al, 1985); cited from earlier work
[1] = system: capsaicin-sensitive cutaneous nerves (small sensory fibers); experiment: Capsaicin-induced pungency (quality of sensation); assay type: in vivo, human
Experimental: Topical Capsaicin: Capsaicin, 8-methyl-N-vanillyl-6-nonenamide, is a vanilloid neurotoxin that targets somatic small primary afferent neurons. Capsaicin (1% in 75% ethanol, 25% saline) was applied topically for 45 minutes through a central chamber (300 μl capacity, 1 cm diameter) in a clear circular plastic perspex adhered to the skin. Throughout the application, perceptual responses and peak flow values were obtained. The vehicle was applied at different skin sites to 6 normal subjects.

[2] = system: capsaicin-sensitive cutaneous nerves (small sensory fibers); experiment: Heat-step heat pain threshold after acute topical capsaicin (primary hyperalgesia); assay type: in vivo, human
Experimental: In the heat-step procedure, basal blood flow was monitored at resting skin temperature and later at 32° C. The temperature was raised in increments of 2° C. per minute until a maximum temperature value of 48° C. was reached. Sensory responses (specifically, heat pain threshold, HPT) and peak net flows at each increment were documented. A second heat-step test followed an acute application of topical capsaicin to the skin to measure sensitization by HPT, i.e., primary hyperalgesia. Two normal and obese subjects complained that the pungency from the capsaicin was extreme and, as a consequence, the heat-step test for hyperalgesia was not conducted.

[3] = system: capsaicin-sensitive cutaneous nerves (small sensory fibers); experiment: Acute topical capsaicin-induced cutaneous blood flow by laser Doppler flowmetry; assay type: in vivo, human
[4] = system: capsaicin-sensitive cutaneous nerves (small sensory fibers); experiment: Capsaicin-induced desensitization (Cap-D); assay type: in vivo, human
Experimental: Capsaicin-Induced Desensitization: Eight (8) normal subjects were recruited to ascertain the degree of capsaicin sensitivity of each of the tests described above. Each subject applied topical capsaicin to one forearm and thigh, and the vehicle to the opposing limb in 45 minute applications, 3-4 times daily for 5 days.

NOS = details: animals (Isenberg et al, 2005); cited from earlier work
venous stasis ulcers = details: CGRP and VIP given together by iontophoresis (Gherardini et al, 1998b); cited from earlier work
diabetic wounds = details: cited from earlier work

## NGF: Nerve growth factor, instrumental in the synthesis of sensory neuropeptides in the DRG
Wound areas
  wound healing: markedly accelerated healing
Leukocyte chemotaxis
  leukocyte chemotaxis: significantly increased leukocyte chemotaxis

## COc1cc(CNC(=O)CCCCC=CC(C)C)ccc1O [Capsaicin, 8-methyl-N-vanillyl-6-nonenamide]
[1]; normal subjects
  capsaicin-induced pungency level: 90%
  share perceiving burn/pain: approximately 80%
  share reporting a stinging/prickly sensation: 20%
[1]; obese subjects
  capsaicin-induced pungency level: 45%
[2]; after acute topical capsaicin, normal subjects
  Heat Step HPT Post-Cap - Hyperalgesia, Normal, Mean: 37.1 °C
[2]; after acute topical capsaicin, obese subjects
  Heat Step HPT Post-Cap - Hyperalgesia, Obese, Mean: 39.8 °C
[2]; both normal and obese groups, p<0.001
  fall in the HPT, average: ~7 C
[2]; normal population, n=11/13
  share of population with pronounced hyperalgesic response: ~90%
[2]; obese population, n=43/53
  share of population with pronounced hyperalgesic response: Approximately 80%
[3]; latency to flare, indirect site, normal subjects
  Capsaicin Latency, Indirect, Normal, Mean: 12 min
[3]; latency to flare, indirect site, obese subjects
  Capsaicin Latency, Indirect, Obese, Mean: 26 min
[3]; latency to vasodilatory response, direct site, normal subjects
  Capsaicin Latency, Direct, Normal, Mean: 11 min
[3]; latency to vasodilatory response, direct site, obese subjects
  Capsaicin Latency, Direct, Obese, Mean: 21 min
[3]; net peak flux, direct flow site, 1% topical capsaicin 45 min, forearm, normal subjects
  Capsaicin Flux, Direct, Normal, Mean: 299 AU
[3]; net peak flux, direct flow site, 1% topical capsaicin 45 min, forearm, obese subjects
  Capsaicin Flux, Direct, Obese, Mean: 159 AU
[3]; net peak flux, indirect flow (flare) site, 1% topical capsaicin 45 min, normal subjects
  Capsaicin Flux, Indirect, Normal, Mean: 257 AU
[3]; net peak flux, indirect flow (flare) site, 1% topical capsaicin 45 min, obese subjects
  Capsaicin Flux, Indirect, Obese, Mean: 128 AU
[4]; direct and indirect flow, versus vehicle
  heat-induced flux in heat-ramp test after Cap-D: decreased significantly
[4]; indirect site
  dose (mC)-response (flux) curve to transcutaneous electrical stimulation after Cap-D: abolished neurogenic flare
[4]; normal subjects n=8
  blood flow on acute capsaicin challenge after Cap-D: virtually no increased blood flow
  pungency on acute capsaicin challenge after Cap-D: no pungency
[4]; topical capsaicin 3-4 times daily for 5 days, normal subjects n=8, maximum temperature utilized
  HPT after capsaicin-induced desensitization: > 48 °C

## COC(=O)[C@@H](N)CCCNC(=N)N[N+](=O)[O-] [L-NAME]
NOS
  vessel diameter and blood flow in skin flaps: marked decreases in vessel diameter and blood flow

## VIP: Vasoactive Intestinal Polypeptide, peptide released by C-fibers (HSDAVFTDNYTRLRKQMAVKKYLNSILN; ends and bridges not checked; UniProt P01282 125-152, looked up)
Venous stasis ulcers
  healing of venous stasis ulcers: improved healing of venous stasis ulcers

## N=C(N)NCCC[C@H](N)C(=O)O [LA, L-Arginine]
Diabetic wounds; diabetic rats (Shi et al)
  wound healing: improve wound healing
Diabetic wounds; diabetic wounds (Shi et al)
  wound NOx levels: increased NOx levels to normal values
